In brackets after ≈: the same amount, converted by molar mass.
Experiments:
Format in all cases: cell-based
E. coli ATCC 8739 [1] = test: Broth microdilution MIC/MBC on planktonic cells; conditions: Escherichia coli, ATCC8739
Experimental: (§1) Two Gram-positive (S. aureus ATCC 29213 and S. epidermidis ATCC 35984) and two Gram-negative (E. coli ATCC 8739 and P. aeruginosa ATCC 9027) strains, and one fungal strain (C. albicans ATCC 10231) were used for the detection of antibacterial activity of carvacrol, NAC, Ac-Cys(Allyl)-OH, and carvacrol codrugs 1–10. All tested compounds were dissolved in 20% DMSO to prepare the stock solution (100 mg/mL). The final concentration of DMSO in each well appeared to be not toxic for all studied microorganisms, as confirmed by the solvent control test included in the study.
(§2) The effects of carvacrol codrugs 1–10 and reference compounds on planktonic cells were evaluated by Minimum Inhibitory Concentration (MIC) and Minimum Bactericidal Concentration (MBC) determination using the broth microdilution method according to EUCAST guidelines. Bacterial suspensions, grown in Mueller–Hinton Broth (MHB) at logarithmic phase, were incubated on microtiter plates at a concentration of 5 x 10^5 CFU/mL, with several dilutions (0.07–40 mg/mL) for 24 h at 37°C. The MIC was defined as the lowest concentration of substances giving a complete inhibition of visible growth in comparison with a control well, and the MBC was determined as the lowest concentration at which no bacterial growth occurred on Mueller–Hinton Agar plates.
(§3) Data were obtained from at least three independent experiments performed in duplicate. The susceptibility of the bacterial strains against ciprofloxacin was used as an internal standard during MIC determinations.

P. aeruginosa ATCC 9027 [2] = test: Broth microdilution MIC/MBC on planktonic cells; conditions: Pseudomonas aeruginosa, ATCC9027
Experimental: as §1, §2, §3

S. aureus ATCC 29213 [3] = test: Broth microdilution MIC/MBC on planktonic cells; conditions: Staphylococcus aureus, ATCC29213
Experimental: as §1, §2, §3

[4] = tested on: S. epidermidis ATCC 35984; test: Broth microdilution MIC/MBC on planktonic cells; conditions: Staphylococcus epidermidis, ATCC35984
Experimental: as §1, §2, §3

C. albicans ATCC 10231 [5] = test: Broth microdilution MIC/MFC; conditions: Candida albicans, ATCC10231
Experimental: as §1
The MIC detection of C. albicans ATCC 10231 was performed using the broth microdilution method according to EUCAST guidelines in RPMI 1640 plus 2% glucose with a final inoculum of 1–5 x 10^5 CFU/mL for 24–48 h at 37°C. The Minimum Fungicidal Concentration (MFC) was determined as the lowest concentration of substances at which no fungal growth occurred on Sabouraud agar plates.
as §3

[6] = tested on: Gram positive and Gram negative tested bacteria; test: Broth microdilution MIC/MBC, range over the bacterial panel; conditions: bacterial strains of Table 1
Experimental: as §1
as §2, with “plates. […]” for “plates.”

C. albicans ATCC 10231 [7] = test: Antibiofilm assay on established biofilm (BIC/BEC)
Experimental: (§4) The efficacy on established biofilm was evaluated by determining Biofilm Inhibitory Concentration (BIC) and Biofilm Eradication Concentration (BEC) according to the method described by Johnson et al. with some modifications. Bacterial suspensions, grown in Tryptic soy broth supplemented with 0.5% (v/v) glucose at logarithmic phase, as well as C. albicans grown in RPMI 1640 plus 2% glucose, were incubated on flat-bottomed microtiter plates at a concentration of 5 x 10^5 CFU/mL. After 24 h of incubation at 37°C, the planktonic cells were gently removed and wells were washed with sterile phosphate-buffered saline solution (PBS) pH 7.3 and filled with carvacrol, carvacrol codrug 4, Ac-Cys(Allyl)-OH with dilutions ranging from the MIC values to a maximum concentration of 50 mg/mL. The OD600 was measured at time 0 and after incubation for 24 h at 37°C. The BIC values were determined as the lowest concentrations where no growth occurred in the supernatant fluid, confirmed by no increase in optical density compared with the initial reading. The BEC values were determined as the lowest concentrations at which no bacterial growth occurred on Tryptic soy agar for bacteria and on Sabouraud agar for C. albicans. Data were obtained from at least three independent experiments performed in duplicate.

E. coli ATCC 8739 [8] = test: Antibiofilm assay on established biofilm (BIC/BEC)
Experimental: as §4

P. aeruginosa ATCC 9027 [9] = test: Antibiofilm assay on established biofilm (BIC/BEC)
Experimental: as §4

S. aureus ATCC 29213 [10] = test: Antibiofilm assay on established biofilm (BIC/BEC); conditions: S. aureus ATCC 29213 established biofilm
Experimental: as §4

[11] = tested on: S. epidermidis ATCC 35984; test: Antibiofilm assay on established biofilm (BIC/BEC)
Experimental: as §4

MIC (E. coli ATCC 8739 [1]; E. coli ATCC 8739, 24 h at 37°C, read-out: MIC): 2500 µg/mL (≈ 12.3 mM) | MIC (P. aeruginosa ATCC 9027 [2]; P. aeruginosa ATCC 9027, 24 h at 37°C, read-out: MIC): 10000 µg/mL (≈ 49.2 mM) | MIC (S. aureus ATCC 29213 [3]; S. aureus ATCC 29213, 24 h at 37°C, read-out: MIC): 5000 µg/mL (≈ 24.6 mM) | MIC ([4]; S. epidermidis ATCC 35984, 24 h at 37°C, read-out: MIC): 5000 µg/mL (≈ 24.6 mM) | MIC (C. albicans ATCC 10231 [5]; C. albicans ATCC 10231, 24–48 h at 37°C, read-out: MIC): 2500 µg/mL (≈ 12.3 mM) | MIC values (range over strains) [6]: 2.5 to 10 mg/mL | BEC as multiple of MIC (C. albicans ATCC 10231 [7]; C. albicans ATCC 10231): 2MIC | BIC as multiple of MIC (C. albicans ATCC 10231 [7]; C. albicans ATCC 10231): 2MIC | BEC as multiple of MIC (E. coli ATCC 8739 [8]; E. coli ATCC 8739): 8MIC | BIC as multiple of MIC (E. coli ATCC 8739 [8]; E. coli ATCC 8739): 2MIC | BEC as multiple of MIC (P. aeruginosa ATCC 9027 [9]; P. aeruginosa ATCC 9027): 2MIC | BEC as multiple of MIC ([11]; S. epidermidis ATCC 35984): 4MIC | BIC as multiple of MIC ([11]; S. epidermidis ATCC 35984): 4MIC
SMILES: C=CCSC[C@H](NC(C)=O)C(=O)O [Ac-Cys(Allyl)-OH, N-Ac-Cys(Allyl)-OH]
MBC (E. coli ATCC 8739 [1]; E. coli ATCC 8739, read-out: MBC): 2500 µg/mL (≈ 12.3 mM) | MBC (P. aeruginosa ATCC 9027 [2]; P. aeruginosa ATCC 9027, read-out: MBC): 10000 µg/mL (≈ 49.2 mM) | MBC (S. aureus ATCC 29213 [3]; S. aureus ATCC 29213, read-out: MBC): 5000 µg/mL (≈ 24.6 mM) | MBC ([4]; S. epidermidis ATCC 35984, read-out: MBC): 5000 µg/mL (≈ 24.6 mM) | MFC (C. albicans ATCC 10231 [5]; C. albicans ATCC 10231, read-out: MFC): 2500 µg/mL (≈ 12.3 mM) | BEC (C. albicans ATCC 10231 [7]; C. albicans ATCC 10231 established biofilm): 5 mg/mL | BIC (C. albicans ATCC 10231 [7]; C. albicans ATCC 10231 established biofilm, 24 h): 5 mg/mL | BEC (E. coli ATCC 8739 [8]; E. coli ATCC 8739 established biofilm): 20 mg/mL | BIC (E. coli ATCC 8739 [8]; E. coli ATCC 8739 established biofilm, 24 h): 5 mg/mL | BEC (P. aeruginosa ATCC 9027 [9]; P. aeruginosa ATCC 9027 established biofilm): 20 mg/mL | BIC (P. aeruginosa ATCC 9027 [9]; P. aeruginosa ATCC 9027 established biofilm, 24 h): 10 mg/mL | BEC (S. aureus ATCC 29213 [10]): 20 mg/mL | BIC (S. aureus ATCC 29213 [10]; 24 h): 10 mg/mL | BEC ([11]; S. epidermidis ATCC 35984 established biofilm): 20 mg/mL | BIC ([11]; S. epidermidis ATCC 35984 established biofilm, 24 h): 20 mg/mL

Source: publication PMC4393269, “Carvacrol Codrugs: A New Approach in the Antimicrobial Plan” (PLoS ONE, 2015)
